Source: article PMC3605511, “Tumor P-Glycoprotein Correlates with Efficacy of PF-3758309 in in vitro and in vivo Models of Colorectal Cancer” (Frontiers in Pharmacology, 2013)
Where “and” joins values, the source holds several entries; their conditions need not be identical. Identical values can stand only once. Like-named read-outs stand apart in the source and are kept apart here.

Assay: End of study tumor and plasma concentrations (LC/MS/MS)
Format: in vivo, mice
Settings: for Plasma concentration / Tumor concentration / Tumor: plasma ratio / concentration at 1 h / Kp at 1 h: end of study, 1 h post treatment, individual animals; for Plasma concentration / Tumor concentration / concentration at 1 h: 25 mg/kg PO BID; for concentration at 1 h: po; for Kp at 1 h: tumor and plasma, read-out: Tumor: plasma ratio
Protocol: Plasma and tumor samples were collected 1 h post treatment at the end of therapeutic studies or 6 h post treatment for P-gp tumor concentration studies. PF-309 was measured in mouse plasma and tumor tissue using a validated LC/MS/MS assay carried out by the University of Colorado Cancer Center Pharmacology Shared Resource. Positive ion electrospray ionization (ESI) mass spectra were obtained with a 3200 QTrap triple quadrupole mass spectrometer (Applied Biosystems Inc., Foster City, CA, USA) with a turboionspray source interfaced to an Agilent 1200 Series binary HPLC system (Agilent Technologies Inc., Santa Clara, CA, USA), and a HTC-PAL auto-sampler (LEAP Technologies, Carrboro, NC, USA). Samples were chromatographed with a Waters Sunfire 2.5 μm C18 column (4.6 × 50 mm; Waters Corp., Milford, MA, USA) with a Phenomenex C18 filter frit guard cartridge (Phenomenex, Torrance, CA, USA). The LC elution was done with a gradient starting at 10% Acetonitrile with 0.1% formic acid:90% 0.1% formic acid held for 1.5 min followed by a 1-min linear gradient to 98% Acetonitrile with 0.1% formic acid: 2% 0.1% formic acid at a flow rate of 750 μl/min and a sample volume of 50 μl. The total analysis time was 5.5 min.
The mass spectrometer settings were: source temperature, 600°C, ion spray voltage, 4500 V, source gas, 50, curtain gas (CUR), 10, collision gas (CAD), low, and needle position 3. Transition specific parameters used were 491.2 → 284.2/491.2 → 148.3/372.2 → 176.1: declustering potential (DP), 46.32/46.54/56.86 V, exit potential (EP), 6.45/3.23/4.08 V, collision cell entrance potential (CEP), 25.92/27.80/20.56 V, collision energy (CE), 40.00/53.10/32.75 V, collision cell exit potential (CXP), 0.42/1.47/2.72 V. Samples were quantified by the internal standard reference method in the MRM mode by monitoring for PF-3758309 transitions of m/z 491.2 → 284.2 and 491.2 → 148.3, and for the internal standard (trazodone) of m/z 372.2 → 176.1. Unknown, standard and quality control samples were extracted from mouse plasma or tumor homogenates (100 mg/ml) by the sequential addition of 5 μl 500 ng/ml internal standard (trazodone), 250 μl acetonitrile:methanol (3:1) to 50 μl plasma/tumor homogenate. Samples were then vortexed for 5 min followed by centrifugation for 10 min at 17,000 rpm. 200 μl of supernatant was then transferred to a microcentrifuge tube followed by the addition of 400 μl 0.1% formic acid followed by vortexing (5 min) and centrifugation (5 min at 13,300 rpm) and the supernatant collected (600 μl) and transferred to auto-sampler vials. The average accuracy and precision based on analysis of quality control samples was 93.1 and 98.7% for plasma samples (range: 1–2500 ng/mL) and 91.9 and 98.2% for tumor (range: 5–5000 ng/mL).
In addition to the cell line xenografts, we also treated 12 different patient derived tumor xenograft (PDTX) CRC models with PF-309 (Figure 6). We were unable to assess how ABCB1 gene expression correlated with efficacy in these models. The PDTX models are propagated in vivo, are not immortalized, and are not grown in in vitro culture. Therefore, we have observed some changes in ABCB1 gene expression in some of our models over time and the direction of the change is not consistent (data not shown). In lieu of analyzing gene expression profiles, we sought to determine if tumor concentration correlated with in vivo response. Tumor and plasma sample pairs were collected from animals at the end of study for eight tumor models (three cell line xenografts and five PDTX models) and concentrations of PF-309 were measured. […] Significant correlations (p < 0.003) were found between both tumor concentration and response and tumor to plasma ratios and response (Table 3).

Plasma concentration (CUCRC006 model, 25 mg/kg): 24.4 ng/mL | Tumor concentration (CUCRC006 model, 25 mg/kg): 3.4 ng/g | Tumor: plasma ratio (CUCRC006 model): 0.14 | Tumor: plasma ratio (CUCRC026 model): 0.25 and 0.13 and 0.33 and 0.09 | Plasma concentration (CUCRC036 model, 25 mg/kg): 40.6 ng/mL and 110 ng/mL and 81.3 ng/mL | Tumor concentration (CUCRC036 model, 25 mg/kg): 65.7 ng/g and 30.7 ng/g and 47.6 ng/g | Tumor: plasma ratio (CUCRC036 model): 1.62 and 0.28 and 0.59 | Plasma concentration (CUCRC042 model, 25 mg/kg): 1.17 ng/mL and 4.58 ng/mL | Tumor concentration (CUCRC042 model, 25 mg/kg): 29.6 ng/g | Tumor: plasma ratio (CUCRC042 model): 29.8 and 6.46 | Plasma concentration (CUCRC047 model, 25 mg/kg): 98.7 ng/mL | Tumor concentration (CUCRC047 model, 25 mg/kg): 7.5 ng/g | Tumor: plasma ratio (CUCRC047 model): 0.08 | Plasma concentration (Colo201 model, 25 mg/kg): 11.7 ng/mL | Tumor concentration (Colo201 model, 25 mg/kg): 140.4 ng/g and 11.1 ng/g | Tumor: plasma ratio (Colo201 model): 6.72 and 0.95 | Plasma concentration (GEO model, 25 mg/kg): 5.48 ng/mL and 54.1 ng/mL and 76.6 ng/mL | Tumor concentration (GEO model, 25 mg/kg): 10.2 ng/g and 15.9 ng/g and 22.9 ng/g | Tumor: plasma ratio (GEO model): 1.9 and 0.3 | Plasma concentration (HCT15 model, 25 mg/kg): 10.0 ng/mL and 13.2 ng/mL and 49.0 ng/mL | Tumor concentration (HCT15 model, 25 mg/kg): 8.9 ng/g and 8.0 ng/g | Tumor: plasma ratio (HCT15 model): 0.68 and 0.67 and 0.16 | Cmax (mouse, plasma, oral, 25 mg/kg, mice, Cmax (1 h), read-out: total plasma concentrations at the Cmax): 10 to 100 nM | concentration at 1 h (mouse, plasma, 25 mg/kg, CUCRC006 model, read-out: Plasma concentration): 42.4 ng/mL | concentration at 1 h (mouse, plasma, 25 mg/kg, CUCRC047 model, read-out: Plasma concentration): 110 ng/mL | concentration at 1 h (mouse, plasma, 25 mg/kg, Colo201 model, read-out: Plasma concentration): 20.9 ng/mL | Kp at 1 h (mouse, oral, 25 mg/kg, CUCRC006 model): 0.08 | Kp at 1 h (mouse, oral, 25 mg/kg, CUCRC047 model): 0.04 | concentration at 1 h (mouse, tumor, 25 mg/kg, CUCRC006 model, read-out: Tumor concentration): 3.6 ng/g | concentration at 1 h (mouse, tumor, 25 mg/kg, CUCRC042 model, read-out: Tumor concentration): 34.8 ng/g | concentration at 1 h (mouse, tumor, 25 mg/kg, CUCRC047 model, read-out: Tumor concentration): 4.4 ng/g | concentration at 1 h (mouse, tumor, 25 mg/kg, HCT15 model, read-out: Tumor concentration): 6.8 ng/g
SMILES: Cc1nc(Nc2n[nH]c3c2CN(C(=O)N[C@H](CN(C)C)c2ccccc2)C3(C)C)c2sccc2n1 [PF-309]
Plasma concentration (CUCRC026 model, 25 mg/kg): 25.4 ng/mL and 114 ng/mL and 69.3 ng/mL and 184 ng/mL | Tumor concentration (CUCRC026 model, 25 mg/kg): 6.4 ng/g and 14.5 ng/g and 22.7 ng/g and 16.8 ng/g
